Patent publication US20230095836A1, “SUBSTITUTED 5,6-DIPHENYL-3(2H)-PYRIDAZINONES FOR USE AS FUNGICIDES” (FMC Corporation, priority 2020, published 2023)

Columns and labels:
Assay type in all cases: in vivo
[1] = tested on: Phakopsora pachyrhizi; assay: Test D: test solution sprayed on soybean seedlings, inoculated next day with Phakopsora pachyrhizi (Asian soybean rust); visual disease rating (100 = 100% disease control, 0 = no control; dash = not tested)
Excerpt: General protocol for preparing test suspensions for Tests A-F: the test compounds were first dissolved in acetone in an amount equal to 3% of the final volume and then suspended at the desired concentration (in ppm) in acetone and purified water (50/50 mix by volume) containing 250 ppm of the surfactant PEG400 (polyhydric alcohol esters). The resulting test suspensions were then used in Tests A-F.
The test solution was sprayed to the point of run-off on soybean seedlings. The following day the seedlings were inoculated with a spore suspension of Phakopsora pachyrhizi (the causal agent of Asian soybean rust) and incubated in a saturated atmosphere at 22° C. for 24 h and then moved to a growth chamber at 22° C. for 8 days, after which time visual disease ratings were made.
A rating of 100 indicates 100% disease control and a rating of 0 indicates no disease control (relative to the controls). A dash (—) indicates the compound was not tested.

[2] = tested on: Alternaria solani; assay: Test F: test suspension sprayed on tomato seedlings, inoculated next day with Alternaria solani (tomato early blight); visual disease rating (100 = 100% disease control, 0 = no control; dash = not tested)
Method: (§1) The resulting test suspensions were then used in Tests A-F. The test suspension was sprayed to the point of run-off on tomato seedlings. The following day the seedlings were inoculated with a spore suspension of Alternaria solani (the causal agent of tomato early blight) and incubated in a saturated atmosphere at 27° C. for 48 h, and then moved to a growth chamber at 20° C. for 3 days, after which time visual disease ratings were made. A rating of 100 indicates 100% disease control and a rating of 0 indicates no disease control (relative to the controls). A dash (—) indicates the compound was not tested.

[3] = tested on: Blumeria graminis f. sp. tritici; assay: Test C: test suspension sprayed on wheat seedlings, inoculated next day with Blumeria graminis f. sp. tritici (wheat powdery mildew); visual disease rating (100 = 100% disease control, 0 = no control; dash = not tested)
Method: as §1, with “on wheat” for “on tomato”, “spore dust” for “spore suspension”, “of Blumeria graminis f. sp. tritici, (also known as Erysiphe graminis f. sp. tritici, the” for “of Alternaria solani (the”, “of wheat powdery mildew)” for “of tomato early blight)”, “in” for “in a saturated atmosphere at 27° C. for 48 h, and then moved to”, “for 8” for “for 3”

[4] = tested on: Puccinia recondita f. sp. tritici; assay: Test B: test solution sprayed on wheat seedlings, inoculated next day with Puccinia recondita f. sp. tritici (wheat leaf rust); disease rating (100 = 100% disease control, 0 = no control; dash = not tested)
Excerpt: The resulting test suspensions were then used in Tests A-F. The test solution was sprayed to the point of run-off on wheat seedlings. […] A rating of 100 indicates 100% disease control and a rating of 0 indicates no disease control (relative to the controls). A dash (—) indicates the compound was not tested.

[5] = tested on: Botrytis cinerea; assay: Test E: test suspension sprayed on tomato seedlings, inoculated next day with Botrytis cinerea (tomato Botrytis); visual disease rating (100 = 100% disease control, 0 = no control; dash = not tested)
Method: as §1, with “Botrytis cinerea” for “Alternaria solani”, “Botrytis)” for “early blight)”, “20°” for “27°”, “24°” for “20°”

[6] = tested on: Zymoseptoria tritici; assay: Test A: test solution sprayed on wheat seedlings, inoculated next day with Zymoseptoria tritici (wheat leaf blotch); disease rating (100 = 100% disease control, 0 = no control; dash = not tested)
Method: The resulting test suspensions were then used in Tests A-F. The test solution was sprayed to the point of run-off on wheat seedlings. The following day the seedlings were inoculated with a spore suspension of Zymoseptoria tritici (the causal agent of wheat leaf blotch) and incubated in a saturated atmosphere at 24° C. for 48 h, and then moved to a growth chamber at 20° C. for 17 days, after which time disease ratings were made. A rating of 100 indicates 100% disease control and a rating of 0 indicates no disease control (relative to the controls). A dash (—) indicates the compound was not tested.

With `COc1cccc(-c2nn(C)c(=O)c(Cl)c2-c2ccc(F)cc2Cl)c1Cl` [Compound 140] the “Test D disease control rating” value ([1]; 50 ppm) was 100%, the “Test F disease control rating” value ([2]; 50 ppm) was 100% and the “Test C disease control rating” value ([3]; 50 ppm) was 99%. For the same molecule, the “Test B disease control rating” value ([4]; 50 ppm) was 100%, the “Test E disease control rating” value ([5]; 50 ppm) was 99% and the “Test A disease control rating” value ([6]; 50 ppm) was 99%.

With `COc1ccc(Cl)c(-c2nn(C)c(=O)c(OC)c2-c2ccc(F)cc2Cl)c1` [Compound 101] the “Test D disease control rating” value ([1]; 50 ppm) was 100%, the “Test F disease control rating” value ([2]; 50 ppm) was 99% and the “Test C disease control rating” value ([3]; 50 ppm) was 99%. The “Test B disease control rating” value ([4]; 50 ppm) was 100%, the “Test E disease control rating” value ([5]; 50 ppm) was 99% and the “Test A disease control rating” value ([6]; 50 ppm) was 100%.

With `Cn1nc(-c2cc(F)ccc2Cl)c(-c2c(F)cccc2F)cc1=O` [Compound 28] the “Test D disease control rating” value ([1]; 250 ppm) was 0%, the “Test F disease control rating” value ([2]; 250 ppm) was 0% and the “Test C disease control rating” value ([3]; 250 ppm) was 100%. The “Test B disease control rating” value ([4]; 250 ppm) was 100%, the “Test E disease control rating” value ([5]; 250 ppm) was 100% and the “Test A disease control rating” value ([6]; 250 ppm) was 100%.

`Cn1nc(-c2ccc(F)cc2Cl)c(-c2ccc(F)cc2Cl)c(C(=O)O)c1=O` [Compound 144] was tested, and the “Test D disease control rating” value ([1]; 250 ppm) was 74%, the “Test F disease control rating” value ([2]; 250 ppm) was 0% and the “Test C disease control rating” value ([3]; 250 ppm) was 0%. For the same molecule, the “Test B disease control rating” value ([4]; 250 ppm) was 0%, the “Test E disease control rating” value ([5]; 250 ppm) was 0% and the “Test A disease control rating” value ([6]; 250 ppm) was 0%.

`Cn1nc(-c2cccc(Cl)c2Cl)c(-c2ccc(F)cc2Cl)c(Cl)c1=O` [Compound 104] was tested, and the “Test D disease control rating” value ([1]; 50 ppm) was 100%, the “Test F disease control rating” value ([2]; 50 ppm) was 99% and the “Test C disease control rating” value ([3]; 50 ppm) was 100%. For the same molecule, the “Test B disease control rating” value ([4]; 50 ppm) was 100%, the “Test E disease control rating” value ([5]; 50 ppm) was 97% and the “Test A disease control rating” value ([6]; 50 ppm) was 100%.

With `COc1ccc(Cl)c(-c2nn(C)c(=O)c(C3CC3)c2-c2ccc(F)cc2Cl)c1` [Compound 139] the “Test D disease control rating” value ([1]; 50 ppm) was 0%, the “Test F disease control rating” value ([2]; 50 ppm) was 9% and the “Test C disease control rating” value ([3]; 50 ppm) was 91%. For the same molecule, the “Test B disease control rating” value ([4]; 50 ppm) was 86%, the “Test E disease control rating” value ([5]; 50 ppm) was 93% and the “Test A disease control rating” value ([6]; 50 ppm) was 100%.

In the case of `COc1cc(C#N)cc(-c2nn(C)c(=O)c(Cl)c2-c2ccc(F)cc2Cl)c1` [Compound 173], the “Test D disease control rating” value ([1]; 50 ppm) is reported as 84%, the “Test F disease control rating” value ([2]; 50 ppm) is reported as 99% and the “Test C disease control rating” value ([3]; 50 ppm) is reported as 94%. For the same molecule, the “Test B disease control rating” value ([4]; 50 ppm) was 100% and the “Test E disease control rating” value ([5]; 50 ppm) was 92%.

`Cn1nc(-c2ccc(F)cc2Cl)c(-c2ccc(F)cc2Cl)c(C(F)F)c1=O` [Compound 130] was tested, and the “Test D disease control rating” value ([1]; 50 ppm) was 77%, the “Test F disease control rating” value ([2]; 50 ppm) was 98% and the “Test B disease control rating” value ([4]; 50 ppm) was 100%. For the same molecule, the “Test E disease control rating” value ([5]; 50 ppm) was 98% and the “Test A disease control rating” value ([6]; 50 ppm) was 100%.

`CC(F)c1c(-c2ccc(F)cc2Cl)c(-c2ccc(F)cc2Cl)nn(C)c1=O` (racemic) [Compound 132] was tested, and the “Test D disease control rating” value ([1]; 50 ppm) was 0%, the “Test F disease control rating” value ([2]; 50 ppm) was 0% and the “Test B disease control rating” value ([4]; 50 ppm) was 68%. The “Test E disease control rating” value ([5]; 50 ppm) was 97% and the “Test A disease control rating” value ([6]; 50 ppm) was 100%.

With `CC(O)c1c(-c2ccc(F)cc2Cl)c(-c2ccc(F)cc2Cl)nn(C)c1=O` (racemic) [Compound 131] the “Test D disease control rating” value ([1]; 50 ppm) was 19%, the “Test F disease control rating” value ([2]; 50 ppm) was 0% and the “Test B disease control rating” value ([4]; 50 ppm) was 74%. For the same molecule, the “Test E disease control rating” value ([5]; 50 ppm) was 97% and the “Test A disease control rating” value ([6]; 50 ppm) was 96%.

In the case of `Cn1nc(-c2ccc(F)cc2Cl)c(-c2ccc(F)cc2Cl)c(C(N)=O)c1=O` [Compound 133], the “Test D disease control rating” value ([1]; 50 ppm) is reported as 0%, the “Test F disease control rating” value ([2]; 50 ppm) is reported as 0% and the “Test B disease control rating” value ([4]; 50 ppm) is reported as 0%. For the same molecule, the “Test E disease control rating” value ([5]; 50 ppm) was 0% and the “Test A disease control rating” value ([6]; 50 ppm) was 3%.

`COc1cc(C#N)cc(-c2nn(C)c(=O)c(OC)c2-c2ccc(F)cc2Cl)c1` [Compound 174] was tested, and the “Test D disease control rating” value ([1]; 50 ppm) was 30%, the “Test F disease control rating” value ([2]; 50 ppm) was 91% and the “Test C disease control rating” value ([3]; 50 ppm) was 97%. The “Test B disease control rating” value ([4]; 50 ppm) was 95% and the “Test E disease control rating” value ([5]; 50 ppm) was 83%.
